Experimental data reported in article PMC10115881, “Disrupting the α-synuclein-ESCRT interaction with a peptide inhibitor mitigates neurodegeneration in preclinical models of Parkinson’s disease” (Nature Communications, 2023).

What was measured:
cathepsin B = test: Cathepsin B fluorescence in rat cortical neurons; format: cell-based; conditions: A53T a-syn
Text: (§1) Pregnant rats (E17) of the Sprague-Dawley strain were purchased from Envigo. Embryos were surgically removed from the mothers and cortices dissected in Hanks Balanced salt solution (Gibco). The meninges were removed, and cells were dissociated using a papain dissociation system (Worthington) before being resuspended in Neurobasal medium A supplemented with antibiotic-antimycotic solution (Gibco), L-glutamine substitute (GlutaMAX™; Gibco) and factor B27 (Gibco). […]
(§2) After fixation, cells were permeabilized with 0.2% Triton-X-100 for 15 min, washed three times with PBS and then incubated with blocking solution (1% BSA, 22.52 mg/mL glycine, 0.1% Tween-20 in PBS or 0.4% saponin, 1% BSA, and 5% goat or donkey serum in PBS) for 1 h. […] Following another three washes with PBS, nuclei were counterstained with DAPI (ThermoFisher) and then coverslips were mounted on slides using Dako fluorescence mounting medium (Agilent) and sealed using clear nail varnish.
(§3) Confocal images of primary cortical neurons, iPSC-derived dopaminergic neurons, and LAMP1 staining within the SN were processed using Imaris software (Oxford instruments). […] Mean pixel intensity per GFP^+ cell (for experiments using GFP-tagged peptides) or RFP^+ cell (for experiments using RFP-tagged peptides) was calculated for a-syn or LAMP1 signal using the software’s surfaces module. […]

A53T a-syn or EV rats = test: AAV-A53T a-syn rat model, low titer; format: in vivo
Text: Third, we used a preclinical rat model of PD in which SN degeneration is induced by AAV vector-mediated expression of human mutant A53T a-syn[18],[45]–[48] (Fig. 5A). […] (Fig. 5B, C). […] Furthermore, overexpression of A53T a-syn was associated with a reduction in LAMP1 positive puncta in the SN which was restored with PDpep1.3 (Figs. 5E, S5E). […] Forelimb asymmetry in the cylinder test is a behavioral impairment associated with SN degeneration which models bradykinesia, the cardinal motor abnormality in PD[49].
Adult female Sprague-Dawley rats (250–280 g; Envigo) were pair-housed in cages with wood bedding and had access to food and water ad libitum. The animal colony was maintained in a regular 12 h light/dark cycle. All procedures were approved by the University Health Network Animal Care Committee in accordance with guidelines and regulations set by the Canadian Council on Animal Care (AUP #3818).
Animals were secured in a stereotactic frame under isoflurane/oxygen anesthesia and ketoprofen (5 mg/kg) analgesia. The surgical site was shaved and sterilized with iodine/betadine prior to making a 2 cm incision along the midline. The scalp was exposed and a unilateral injection targeting the SN was performed at coordinates AP −5.2 mm, ML −2 mm and DV −7.5 mm with respect to the bregma as a point of reference. […]
Immunofluorescence staining for a-syn, pS129 a-syn, TH, and LAMP1 was performed by washing free-floating sections with PBS-T (0.1% Tween-20 or 0.2% Triton-X-100) three times for 10 min each at room temperature. […] Sections were then mounted onto glass slides and allowed to dry and then Dako fluorescence mounting medium (Agilent) was applied, followed by coverslips.
Confocal images of immunofluorescent staining of midbrain sections were processed using HALO software (Indica Labs), which is a well validated tool for automatic quantification of neurons in brain tissue sections[70]–[72]. […] Levels of total a-syn were assessed in this ROI by measuring the area and intensity of anti-a-syn staining. […]

cathepsin D = test: Cathepsin D fluorescence in rat cortical neurons; format: cell-based; conditions: A53T a-syn
Text: as §1, §2, §3

Sequence: DEEIERQLKALG [PDpep1.3]
- Effect on cathepsin B (cathepsin B): reduced to control levels
- Effect on LAMP1 positive puncta in SN (A53T a-syn or EV rats): restored
- Effect on total a-syn positive area in SN (A53T a-syn or EV rats): significant reduction in total a-syn positive area in the SN
- a-syn mean fluorescence intensity in TH+ and GFP+ SN cells (A53T a-syn or EV rats; n = 5–7 rats/group): 0.335 ± 0.025 RFU
- Effect on cathepsin D (cathepsin D): reduced to control levels
